Measurements reported in the supplement of paper PMC10307832.

Experiments:
Test in all cases: relative viability (nuclei count vs DMSO), 5 days (fraction); higher = more cells survive
[1] = compound: CC1=C(C(=NN1)C)CC2=C(C3=C(S2)N(C(=O)N(C3=O)C)CC(C)C)C(=O)N4C[C@@H](CO4)O + CC(C)C[C@H](NC(=O)[C@H](Cc1ccccc1)NC(=O)c1cnccn1)B(O)O [Bortezomib] (partner 0.002 µM)
Summary of the method: (§1)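 One day after seeding in 1536-well plates, lung cancer cell lines were dosed by pin tool. Dosing was either single-drug or a fixed anchor-drug dose plus five library-drug doses (not always all listed) in √10 steps. After 5 days, nuclei were stained in one fix-and-stain step and counted on 4× images, and relative viability is the nuclei count of treated wells over that of vehicle wells, given as the median of duplicate plates.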

[2] = compound: CC1=C(C(=NN1)C)CC2=C(C3=C(S2)N(C(=O)N(C3=O)C)CC(C)C)C(=O)N4C[C@@H](CO4)O + O=C(c1cc(Cc2n[nH]c(=O)c3ccccc23)ccc1F)N1CCN(C(=O)C2CC2)CC1 [Olaparib] (partner 8 µM)
Summary of the method: as §1

[3] = compound: CC1=C(C(=NN1)C)CC2=C(C3=C(S2)N(C(=O)N(C3=O)C)CC(C)C)C(=O)N4C[C@@H](CO4)O + CS(=O)(=O)N1CCN(Cc2cc3nc(-c4cccc5[nH]ncc45)nc(N4CCOCC4)c3s2)CC1 [Pictilisib] (partner 1 µM)
Summary of the method: as §1

[4] = compound: Cc1ccccc1C(C(=O)NC1CCCCC1)N(C(=O)Cn1ccnc1C)c1cccc(F)c1 [IDH-C35] + Cc1nc(Nc2ncc(C(=O)Nc3c(C)cccc3Cl)s2)cc(N2CCN(CCO)CC2)n1 [Dasatinib] (partner 0.075 µM)
Summary of the method: as §1

Cell Line | relative viability ([1]; first compound 0.0025 µM) | relative viability ([1]; first compound 0.007906 µM) | relative viability ([1]; first compound 0.025 µM) | relative viability ([1]; first compound 0.07906 µM) | relative viability ([1]; first compound 0.25 µM) | relative viability ([2]; first compound 0.0025 µM) | relative viability ([2]; first compound 0.007906 µM) | relative viability ([2]; first compound 0.025 µM) | relative viability ([2]; first compound 0.07906 µM) | relative viability ([2]; first compound 0.25 µM) | relative viability ([3]; first compound 0.0025 µM) | relative viability ([3]; first compound 0.007906 µM) | relative viability ([3]; first compound 0.025 µM) | relative viability ([3]; first compound 0.07906 µM) | relative viability ([3]; first compound 0.25 µM) | relative viability ([4]; first compound 0.08 µM) | relative viability ([4]; first compound 0.253 µM) | relative viability ([4]; first compound 0.8 µM) | relative viability ([4]; first compound 2.53 µM) | relative viability ([4]; first compound 8 µM)
HCC-78 | 0.526 | 0.614 | 0.535 | 0.543 | 0.413 | 0.826 | 1 | 0.92 | 0.854 | 0.798 | 0.217 | 0.218 | 0.172 | 0.169 | 0.194 | 0.361 | 0.315 | 0.496 | 0.325 | 0.435
HCC-366 | 1.04 | 1.1 | 0.958 | 1.07 | 1.13 | 0.379 | 0.473 | 0.357 | 0.294 | 0.371 | 0.139 | 0.141 | 0.25 | 0.193 | 0.212 | 0.763 | 0.67 | 0.669 |  | 0.596
HCC-827 | 0.923 | 1.04 | 0.985 | 0.913 | 1.08 | 0.641 | 0.629 | 0.58 | 0.612 | 0.612 | 1.24 | 1.04 | 0.896 | 0.863 | 1.06 | 0.328 | 0.263 | 0.29 | 0.32 | 0.382
HOP-62 | 0.535 | 1.03 | 0.753 | 0.557 | 1.07 | 0.408 | 0.434 | 0.545 | 0.425 | 0.515 | 0.719 | 0.876 | 0.903 | 0.787 | 0.825 | 0.712 | 0.624 | 0.6 | 0.638 | 0.622
LC-2-ad | 1.06 | 1.05 | 1.15 | 0.999 | 1.14 | 0.748 | 0.659 | 0.702 | 0.658 | 0.782 | 0.558 | 0.426 | 0.716 | 0.622 | 0.467 | 0.596 | 0.65 | 0.568 |  | 0.593
LCLC-97TM1 | 0.657 | 0.484 | 0.347 | 0.637 | 0.949 | 0.492 | 0.519 | 0.404 | 0.38 | 0.414 | 0.188 | 0.268 | 0.22 | 0.182 | 0.199 | 0.87 | 0.796 | 0.822 | 0.818 | 0.809
LCLC-103H | 1.11 | 1.08 | 1.15 | 1.04 | 1.05 | 0.797 | 0.735 | 0.762 | 0.753 | 0.773 | 0.682 | 0.615 | 0.704 | 0.517 | 0.721 | 0.485 | 0.441 | 0.45 | 0.423 | 0.514
LOU-NH91 | 0.473 | 0.486 | 0.546 | 0.423 | 0.476 | 0.912 | 0.877 | 0.925 | 0.956 | 0.926 | 0.503 | 0.494 | 0.495 | 0.571 | 0.529 | 0.554 | 0.538 | 0.558 | 0.531 | 0.557
